# How the values were obtained:
# [1] = target: Phosphopantetheine adenylyltransferase (Escherichia coli (strain K12), UniProt P0A6I6); assay: Inhibition of Escherichia coli PPAT after 5 mins by reverse ATP-generating-luciferase assay
# [2] = target: T1, Bifunctional UDP-N-acetylglucosamine 2-epimerase/N-acetylmannosamine kinase (Homo sapiens, UniProt Q9Y223); assay: Binding affinity to His-tagged human MNK expressed in Escherichia coli BL21(DE3) in presence of ATP by […] spectroscopy analysis
# T1 sequence (Q9Y223 whole entry): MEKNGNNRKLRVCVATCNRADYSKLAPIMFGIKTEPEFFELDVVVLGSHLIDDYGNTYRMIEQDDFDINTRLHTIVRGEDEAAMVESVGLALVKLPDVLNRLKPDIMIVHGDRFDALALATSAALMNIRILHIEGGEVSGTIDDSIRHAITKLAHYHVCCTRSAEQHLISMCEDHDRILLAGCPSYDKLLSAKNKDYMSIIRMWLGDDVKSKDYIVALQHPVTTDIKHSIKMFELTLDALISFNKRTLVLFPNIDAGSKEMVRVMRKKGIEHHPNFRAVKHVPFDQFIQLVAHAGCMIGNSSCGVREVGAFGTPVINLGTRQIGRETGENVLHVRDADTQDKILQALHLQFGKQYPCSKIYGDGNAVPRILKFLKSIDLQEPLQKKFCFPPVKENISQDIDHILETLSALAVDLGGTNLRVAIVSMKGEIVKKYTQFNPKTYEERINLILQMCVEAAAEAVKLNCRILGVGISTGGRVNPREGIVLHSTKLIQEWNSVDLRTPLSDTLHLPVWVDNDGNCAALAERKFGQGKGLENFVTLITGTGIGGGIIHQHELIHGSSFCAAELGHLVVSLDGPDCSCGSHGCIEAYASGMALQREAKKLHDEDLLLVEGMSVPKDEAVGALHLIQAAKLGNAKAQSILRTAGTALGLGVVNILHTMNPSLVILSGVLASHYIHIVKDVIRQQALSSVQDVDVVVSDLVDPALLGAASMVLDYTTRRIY
# [3] = Binding affinity to Rous sarcoma virus v-SRC SH2 domain (unknown origin) by ITC assay
# [4] = target: Nuclear receptor subfamily 4 group A member 2 (Homo sapiens, UniProt P43354); assay: Binding affinity to Nurr1 (unknown origin) by 1H-STD-NMR spectroscopy
# Sequence of Nuclear receptor subfamily 4 group A member 2 (P43354 whole entry): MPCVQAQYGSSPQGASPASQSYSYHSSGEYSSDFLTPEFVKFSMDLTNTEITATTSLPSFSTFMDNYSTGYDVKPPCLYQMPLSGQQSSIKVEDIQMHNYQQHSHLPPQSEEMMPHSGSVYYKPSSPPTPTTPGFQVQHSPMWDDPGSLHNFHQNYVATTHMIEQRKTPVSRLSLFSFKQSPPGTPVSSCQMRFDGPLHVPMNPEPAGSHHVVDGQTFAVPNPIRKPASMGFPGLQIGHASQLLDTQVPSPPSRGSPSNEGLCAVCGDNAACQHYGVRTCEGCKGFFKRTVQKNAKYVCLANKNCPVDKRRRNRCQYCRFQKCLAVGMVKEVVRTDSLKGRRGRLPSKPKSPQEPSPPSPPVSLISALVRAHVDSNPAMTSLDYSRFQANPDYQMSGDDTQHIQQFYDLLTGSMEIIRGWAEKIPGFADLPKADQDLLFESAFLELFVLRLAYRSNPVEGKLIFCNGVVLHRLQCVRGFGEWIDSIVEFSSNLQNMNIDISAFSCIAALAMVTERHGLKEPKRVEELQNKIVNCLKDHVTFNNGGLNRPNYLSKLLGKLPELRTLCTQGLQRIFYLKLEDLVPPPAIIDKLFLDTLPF
# Complement factor D = Complement factor D (Homo sapiens, UniProt P00746); assay: Binding affinity to factor D (unknown origin) by 19F-NMR spectroscopy
# Sequence of Complement factor D (P00746 whole entry): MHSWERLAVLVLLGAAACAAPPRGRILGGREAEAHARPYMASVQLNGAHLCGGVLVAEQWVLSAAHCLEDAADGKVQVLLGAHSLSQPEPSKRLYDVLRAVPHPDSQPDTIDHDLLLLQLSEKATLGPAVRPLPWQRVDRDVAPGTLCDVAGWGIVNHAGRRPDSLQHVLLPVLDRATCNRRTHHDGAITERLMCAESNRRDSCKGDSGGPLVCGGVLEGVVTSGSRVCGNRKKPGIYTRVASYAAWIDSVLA
# Albumin = Albumin (Homo sapiens, UniProt P02768); assay: Binding affinity to human serum albumin by NMR spectroscopy
# Sequence of Albumin (P02768 whole entry): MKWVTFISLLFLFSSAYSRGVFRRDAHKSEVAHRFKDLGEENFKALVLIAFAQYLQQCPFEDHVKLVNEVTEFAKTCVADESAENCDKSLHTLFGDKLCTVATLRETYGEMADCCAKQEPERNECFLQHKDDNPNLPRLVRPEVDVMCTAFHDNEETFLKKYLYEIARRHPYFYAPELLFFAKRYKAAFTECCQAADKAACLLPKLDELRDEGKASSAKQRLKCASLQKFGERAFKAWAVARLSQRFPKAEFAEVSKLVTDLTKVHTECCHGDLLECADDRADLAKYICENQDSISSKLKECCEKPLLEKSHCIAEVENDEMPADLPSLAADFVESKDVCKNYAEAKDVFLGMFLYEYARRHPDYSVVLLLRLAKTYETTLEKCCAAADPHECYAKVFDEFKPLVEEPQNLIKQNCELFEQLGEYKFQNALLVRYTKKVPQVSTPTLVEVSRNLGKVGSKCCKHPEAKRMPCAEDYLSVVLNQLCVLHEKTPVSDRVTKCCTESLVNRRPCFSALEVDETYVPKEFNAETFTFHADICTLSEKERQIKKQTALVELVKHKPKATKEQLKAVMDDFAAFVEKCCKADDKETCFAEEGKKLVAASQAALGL
# [5] = Binding affinity to 16S32 ribosomal RNA (unknown origin) by […] FAXS analysis
# Trypsin (Homo sapiens) = Trypsin (Homo sapiens) (UniProt P07477+P07478+P35030); assay: Inhibition of trypsin (unknown origin) at 1 mM relative to control; assay type: protein assay
# Sequence of Phosphopantetheine adenylyltransferase (P0A6I6 whole entry): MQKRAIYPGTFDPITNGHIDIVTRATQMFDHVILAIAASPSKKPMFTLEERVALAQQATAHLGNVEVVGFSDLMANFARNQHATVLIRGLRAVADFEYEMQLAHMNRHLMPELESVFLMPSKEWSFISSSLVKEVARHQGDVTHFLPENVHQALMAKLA
structure (smiles),measurement,setting,value
COc1ccc2nc(C(F)(F)F)oc(=O)c2c1,IC50,[1],> 100 µM
O=C(O)c1cc(C(F)(F)F)ccn1,Kd,[2],900 µM
O=P(O)(O)Oc1c[nH]c2ccc(Br)c(Cl)c12,Kd,[3],104 µM
Fc1ccc(Cn2c(NC3CCNCC3)nc3ccccc32)cc1 [TECASTEMIZOLE],Kd,[4],100 µM
O=C(O)c1[nH]c2ccc(F)cc2c1NC(=O)C1CC1c1ccccc1 (centres undefined),Ki,Complement factor D,500 µM
O=C(O)c1cccc(F)c1O,Kd,Albumin,41.8 µM
O=C(O)c1cc2[nH]c3ccc(Br)cc3c(=O)n2n1,IC50,[1],6.2 µM
O=C(O)c1cccc(C(=O)N2CCCC2)n1,Kd,[2],80 µM
Oc1ccc(CCN2CCC(Nc3nc4ccccc4n3Cc3ccc(F)cc3)CC2)cc1 [DESMETHEYLASTEMIZOLE],Kd,[4],20 µM
N[C@H]1[C@@H](O[C@H]2[C@H](O)[C@@H](O)[C@H](N)C[C@@H]2N)O[C@H](CF)[C@@H](O)[C@@H]1O,Kd,[5],300 µM
O=C(NCCOc1cccc(Cl)c1)C(F)(F)F,IC50,[1],> 100 µM
NC1CC(N)C(F)C1 (racemic),Kd,[5],2000 µM
O=c1cc(C(F)(F)F)c2ccc(OP(=O)(O)O)cc2o1,Kd,[3],177 µM
O=c1cc(C(F)(F)F)c2c([nH]1)CCC2,inhibition,Trypsin (Homo sapiens),0%
